Assay results taken from article PMC10703426, “New characterization of dihydroergotamine receptor pharmacology in the context of migraine: utilization of a β-arrestin recruitment assay” (Frontiers in Neurology, 2023).
pEC50, pIC50: −log10 of the molar value. Entries after “also recorded” stand apart in the source; their conditions may differ. Counter-ions that a name gives are not always drawn. Like-named read-outs stand apart in the source and are kept apart here.

How the values were obtained:
human 5-HT3 receptor = biological target: T1, human 5-HT3 receptor (Homo sapiens, UniProt P46098); assay: Radioligand competition binding, [3H]GR-65630, HEK-293 cell membranes
T1 construct: host or cells: HEK-293
Method: Nonspecific binding was determined in the presence of 10 μM MDL 72222. Following incubation, the samples were filtered rapidly under vacuum through glass fiber filters (GF/B, Packard; Kennesaw, GA) presoaked with 0.3% polyethyleneimine and rinsed several times with ice-cold 50 mM Tris–HCl using a 96-sample cell harvester (UniFilter, Packard). The filters were dried and then counted for radioactivity in a scintillation counter (TopCount, Packard) using a scintillation cocktail (MicroScint 0, Packard). Results are expressed as percent inhibition of the control radioligand–specific binding. The standard reference compound was MDL 72222, which was tested in each experiment at several concentrations to obtain a competition curve from which its half-maximal inhibitory concentration (IC50) was calculated.

human 5-HT4E receptor = biological target: T2, human 5-HT4E receptor (Homo sapiens, UniProt Q13639); assay: Radioligand competition binding, [3H]GR 113808, CHO cell membranes
T2 construct: host or cells: CHO
Method: Nonspecific binding was determined in the presence of 100 μM serotonin. Following incubation, the same protocol as described above for 5-HT3 binding was employed. The standard reference compound for 5-HT4E binding is serotonin.

D2 = biological target: T3, D2 (Homo sapiens, UniProt P14416); assay: Radioligand competition binding, [3H]7-OH-DPAT, HEK-293 cells
T3 construct: host or cells: HEK-293
Method: (§1) All assays were performed in duplicate (ie, 2 replicates per assay, per standard manufacturer protocol).

D5 = biological target: T4, D5 (Homo sapiens, UniProt P21918); assay: Radioligand competition binding, [3H]SCH 23390, GH4 cells
T4 construct: ProLink enzyme-donor fragment of β-galactosidase (own knowledge of the PathHunter design)
Method: as §1

CXCR7 [1] = biological target: T5, CXCR7 (Homo sapiens, UniProt P25106); assay: Radioligand binding assay (as worded in the discussion); conditions: at concentrations <1.0 μM
5-HT1A = conditions: IV DHE (53 ng/mL); cited from earlier work
5-HT1B = conditions: IV DHE (53 ng/mL); cited from earlier work
5-HT1D [2] = conditions: IV DHE (53 ng/mL); cited from earlier work
5-HT2C = conditions: IV DHE (53 ng/mL); cited from earlier work
5-HT5A = conditions: IV DHE (53 ng/mL); cited from earlier work
5-HT6 = conditions: IV DHE (53 ng/mL); cited from earlier work
5-HT7 = conditions: IV DHE (53 ng/mL); cited from earlier work
α-adrenergic1 = conditions: IV DHE (53 ng/mL); cited from earlier work
α-adrenergic2A = conditions: IV DHE (53 ng/mL); cited from earlier work
α-adrenergic2C = conditions: IV DHE (53 ng/mL); cited from earlier work
D2S = conditions: IV DHE (53 ng/mL); cited from earlier work
D3 = conditions: IV DHE (53 ng/mL); cited from earlier work
[3] = 1 mg of IV DHE, cited from earlier work
[4] = 1.0 mg of IV DHE, phase 1 study, cited from earlier work
human 5-HT1B = system: human 5-HT1B; set-up: method as in doi:10.1186/1129-2377-14-S1-P75; conditions: cited from earlier work
5-HT1D [5] = system: 5-HT1D; set-up: method as in doi:10.1186/1129-2377-14-S1-P75; conditions: cited from earlier work
5-HT1B/1D receptors = system: 5-HT1B/1D receptors; set-up: method as in doi:10.1186/1129-2377-14-S1-P75; conditions: cited from earlier work
CXCR7 [6] = biological target: T5, CXCR7; assay: gpcrMAX PathHunter β-arrestin recruitment, agonist mode; format: cell-based; set-up: ProLink enzyme-donor fragment of β-galactosidase (own knowledge of the PathHunter design)
Method: PathHunter cell lines were expanded from freezer stocks according to standard procedures and cells were seeded in a total volume of 20 μL into white-walled, 384-well microplates in duplicate and incubated at 37°C prior to testing. […] Intermediate dilution (1% vehicle concentration) of sample stocks was performed to generate a 5× sample in assay buffer, of which 5 μL was added to the cells and incubated for 90 or 180 min at 37°C or room temperature, depending on the specific receptor, as established by manufacturer optimization protocols (see Supplementary Table 1). For antagonist activity, cells were preincubated with an antagonist for 30 min, followed by an agonist challenge at 80% of the maximal effective concentration (EC80). Intermediate dilution of sample stocks was performed to generate 5× sample in assay buffer, of which 5 μL was added to cells and incubated at 37°C or room temperature for 30 min. […] Microplates were read with a PerkinElmer EnVision (Shelton, CT) instrument for chemiluminescent signal detection.
Measurement of agonist and antagonist activity in the assay was calculated as percent activity of relative luminescence units (from positive control). Significance of agonist/antagonist activity was determined based upon prespecified criteria provided by Eurofins DiscoverX. […]

T1 sequence (P46098 24-478): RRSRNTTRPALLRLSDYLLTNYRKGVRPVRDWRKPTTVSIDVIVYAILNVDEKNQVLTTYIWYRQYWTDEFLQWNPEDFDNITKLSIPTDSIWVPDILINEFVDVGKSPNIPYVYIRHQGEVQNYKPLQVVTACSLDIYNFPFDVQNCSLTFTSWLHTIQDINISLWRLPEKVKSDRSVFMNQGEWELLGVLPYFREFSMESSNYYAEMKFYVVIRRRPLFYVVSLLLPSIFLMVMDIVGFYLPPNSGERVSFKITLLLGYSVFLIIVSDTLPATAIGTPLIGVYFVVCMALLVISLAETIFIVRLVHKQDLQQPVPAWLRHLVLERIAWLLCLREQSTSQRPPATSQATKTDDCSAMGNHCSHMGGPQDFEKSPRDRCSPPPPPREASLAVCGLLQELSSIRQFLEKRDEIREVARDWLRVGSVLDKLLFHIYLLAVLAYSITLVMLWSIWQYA
T5 sequence (P25106 whole entry): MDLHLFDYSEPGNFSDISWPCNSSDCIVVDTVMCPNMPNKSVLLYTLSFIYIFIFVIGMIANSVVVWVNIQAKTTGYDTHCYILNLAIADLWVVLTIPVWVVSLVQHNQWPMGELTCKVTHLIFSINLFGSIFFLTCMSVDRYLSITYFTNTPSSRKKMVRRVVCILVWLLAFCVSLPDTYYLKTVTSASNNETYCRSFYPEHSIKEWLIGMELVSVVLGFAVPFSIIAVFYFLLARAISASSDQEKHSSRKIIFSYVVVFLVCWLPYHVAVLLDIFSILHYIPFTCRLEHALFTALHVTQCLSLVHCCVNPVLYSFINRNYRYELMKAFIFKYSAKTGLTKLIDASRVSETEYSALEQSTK
T3 sequence (P14416 1-414 isoform P14416-2): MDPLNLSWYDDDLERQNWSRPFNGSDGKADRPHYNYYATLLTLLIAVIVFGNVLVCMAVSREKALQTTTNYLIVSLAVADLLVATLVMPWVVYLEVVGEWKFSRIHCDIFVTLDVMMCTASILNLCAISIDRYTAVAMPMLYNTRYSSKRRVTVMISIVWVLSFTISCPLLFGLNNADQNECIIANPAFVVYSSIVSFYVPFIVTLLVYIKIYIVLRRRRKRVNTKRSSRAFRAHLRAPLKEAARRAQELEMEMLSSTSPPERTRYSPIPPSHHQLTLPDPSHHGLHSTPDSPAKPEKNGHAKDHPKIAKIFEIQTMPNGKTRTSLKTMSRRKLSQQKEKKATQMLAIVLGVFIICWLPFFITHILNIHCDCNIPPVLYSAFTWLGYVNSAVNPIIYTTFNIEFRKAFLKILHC
T4 sequence (P21918 whole entry, the tested form may be a part): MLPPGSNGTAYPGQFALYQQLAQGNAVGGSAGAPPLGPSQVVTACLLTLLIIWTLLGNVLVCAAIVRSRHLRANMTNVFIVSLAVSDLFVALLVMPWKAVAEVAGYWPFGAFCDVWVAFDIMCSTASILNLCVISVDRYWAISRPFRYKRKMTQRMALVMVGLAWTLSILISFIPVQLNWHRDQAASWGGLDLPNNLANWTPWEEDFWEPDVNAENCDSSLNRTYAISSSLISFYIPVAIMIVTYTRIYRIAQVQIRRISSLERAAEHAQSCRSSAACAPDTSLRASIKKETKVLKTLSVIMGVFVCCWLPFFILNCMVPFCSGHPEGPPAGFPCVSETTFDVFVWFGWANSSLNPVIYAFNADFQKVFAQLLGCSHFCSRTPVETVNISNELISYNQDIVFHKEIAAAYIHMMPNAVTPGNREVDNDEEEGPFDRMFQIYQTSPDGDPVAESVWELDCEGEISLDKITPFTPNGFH
T2 sequence (Q13639 1-378 isoform Q13639-5): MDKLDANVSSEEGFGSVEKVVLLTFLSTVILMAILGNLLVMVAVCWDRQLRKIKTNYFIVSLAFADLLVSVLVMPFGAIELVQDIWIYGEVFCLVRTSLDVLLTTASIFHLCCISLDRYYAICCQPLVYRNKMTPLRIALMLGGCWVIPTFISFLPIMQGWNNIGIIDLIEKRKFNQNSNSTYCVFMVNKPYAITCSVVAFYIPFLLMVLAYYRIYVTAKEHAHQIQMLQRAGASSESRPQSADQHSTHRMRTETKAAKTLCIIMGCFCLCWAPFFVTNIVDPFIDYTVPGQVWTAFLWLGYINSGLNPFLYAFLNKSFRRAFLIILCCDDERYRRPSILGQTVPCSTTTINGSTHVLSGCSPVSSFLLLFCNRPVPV

## CN1C[C@H](C(=O)N[C@]2(C)O[C@@]3(O)[C@@H]4CCCN4C(=O)[C@H](Cc4ccccc4)N3C2=O)C[C@@H]2c3cccc4[nH]cc(c34)C[C@H]21 [DHE, Dihydroergotamine mesylate]
Human 5-HT3 receptor
  pIC50: < 6.52
Human 5-HT3 receptor; at concentrations up to 300 nM
  binding to the 5-HT3 receptor: did not bind; also recorded: did not exhibit binding
Human 5-HT4E receptor
  pIC50: 6.64
D2
  pIC50: 9.33
D5
  pIC50: 6.43
CXCR7 [1]
  DHE binding/activity at CXCR7: Additional notes • Radioligand binding assays reported here did not show DHE binding at concentrations <1.0 μM; therefore, agonist activity of DHE on CXCR7 is unlikely in clinically relevant conditions
5-HT1A
  receptor radioligand binding (active binding): X (An X denotes active binding)
5-HT1B
  receptor radioligand binding (active binding): X (An X denotes active binding)
5-HT1D [2]
  receptor radioligand binding (active binding): X (An X denotes active binding)
5-HT2C
  receptor radioligand binding (active binding): X (An X denotes active binding)
5-HT5A
  receptor radioligand binding (active binding): X (An X denotes active binding)
5-HT6
  receptor radioligand binding (active binding): X (An X denotes active binding)
5-HT7
  receptor radioligand binding (active binding): X (An X denotes active binding)
α-adrenergic1
  receptor radioligand binding (active binding): X (An X denotes active binding)
α-adrenergic2A
  receptor radioligand binding (active binding): X (An X denotes active binding)
α-adrenergic2C
  receptor radioligand binding (active binding): X (An X denotes active binding)
D2S
  receptor radioligand binding (active binding): X (An X denotes active binding)
D3
  receptor radioligand binding (active binding): X (An X denotes active binding)
[3]
  maximum plasma concentration (Cmax): 53 ng/mL
[3]; read-out: maximum plasma concentration (Cmax)
  Cmax: ~91 nM
[4]
  Human plasma Cmax: 14.2 ng/mL
[4]; read-out: Human plasma Cmax
  Cmax: ~24 nM
Human 5-HT1B
  dissociation half-life: 1.38 h
5-HT1D [5]
  dissociation half-life: 1.28 h
5-HT1B/1D receptors; 5-HT1B and 5-HT1D
  time bound to the receptors longer than sumatriptan: 8 to 14 h
5-HT1B/1D receptors; human 5-HT1B and 5-HT1D
  dissociation half-lives, times longer than those of sumatriptan: approximately 10 times
CXCR7 [6]
  pEC50: 5.22
CXCR7 [6]; 10 μM, >30% activity = agonist
  DHE activity (screening): Agonist
